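Grown in 96-well plates, cells were treated for 48 hours with each compound at five concentrations. Insufficient inhibition: endpoint recorded as highest concentration tested. Here, GI50 denotes the concentration required for 50% inhibition of growth. TGI: total growth inhibition.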
Key:
Assay in all cases: growth of human tumour cells (NCI), 48 h
[1] = test system: NCI-H23 lung
[2] = test system: OVCAR-4 ovarian
[3] = test system: MCF7 breast
[4] = test system: OVCAR-5 ovarian
[5] = test system: MDA-MB-435
[6] = test system: BT-549 breast
[7] = test system: SK-MEL-5 melanoma
[8] = test system: KM12 colon
[9] = test system: T-47D breast
[10] = test system: RPMI-8226 leukemia
[11] = test system: ACHN renal
[12] = test system: COLO 205 colon
[13] = test system: MOLT-4 leukemia
[14] = test system: HOP-62 NSCLC
[15] = test system: EKVX NSCLC
[16] = test system: MDA-MB-468 breast
[17] = test system: DU-145 prostate
[18] = test system: CAKI-1 renal
[19] = test system: SK-MEL-28 melanoma
[20] = test system: SF-295 CNS
[21] = test system: 786-0 renal
[22] = test system: TK-10 renal
[23] = test system: SNB-19 CNS
[24] = test system: HOP-92 NSCLC
[25] = test system: U251 CNS
[26] = test system: SK-OV-3 ovarian
[27] = test system: A549 NSCLC
[28] = test system: SW-620 colon
[29] = test system: SF-268 CNS
[30] = test system: LOX IMVI melanoma
[31] = test system: SN12C renal
[32] = test system: CCRF-CEM leukemia
[33] = test system: MALME-3M melanoma
[34] = test system: HCT-116 colon
[35] = test system: NCI-H522 lung
[36] = test system: HS 578T breast
[37] = test system: SR leukemia
[38] = test system: HCC-2998 colon
[39] = test system: RXF 393 renal
[40] = test system: NCI-H226 lung
[41] = test system: HCT-15 colon
[42] = test system: A498 renal
[43] = test system: UACC-62 melanoma
[44] = test system: K-562 leukemia
[45] = test system: OVCAR-8 ovarian
[46] = test system: PC-3 prostate
[47] = test system: IGROV1 ovarian
[48] = test system: M14 melanoma
[49] = test system: HL-60(TB) leukemia
[50] = test system: SF-539 CNS
[51] = test system: OVCAR-3 ovarian
[52] = test system: NCI-H460 lung
[53] = test system: HT29 colon
[54] = test system: NCI/ADR-RES ovarian
[55] = test system: UACC-257 melanoma

COc1c(B(O)O)cc(F)cc1-c1nc2c(F)cc3[nH]ncc3c2c2c1CCCC2
GI50 [1]: 7.03 µM
TGI [1]: 31.3 µM
GI50 [2]: 14.9 µM
TGI [2]: 59.4 µM
GI50 [3]: 3.83 µM
TGI [3]: 23.1 µM
GI50 [4]: 5.77 µM
TGI [4]: 66 µM
GI50 [5]: 13.8 µM
TGI [5]: 34.2 µM
GI50 [6]: 0.0845 µM
TGI [6]: 6.85 µM
GI50 [7]: 14.4 µM
TGI [7]: 33.2 µM
GI50 [8]: 4.47 µM
TGI [8]: 31.6 µM
GI50 [9]: 12.5 µM
TGI [9]: 61.9 µM
GI50 [10]: 2.14 µM
TGI [10]: 19.6 µM
GI50 [11]: 1.38 µM
TGI [11]: 42.4 µM
GI50 [12]: 4.85 µM
TGI [12]: 19.3 µM
GI50 [13]: 2.75 µM
TGI [13]: 30.9 µM
GI50 [14]: 2.95 µM
TGI [14]: 54 µM
GI50 [15]: 5.04 µM
TGI [15]: 63.4 µM
GI50 [16]: 11.7 µM
TGI [16]: 39.9 µM
GI50 [17]: 6.53 µM
TGI [17]: 56.4 µM
GI50 [18]: 0.158 µM
TGI [18]: 1.58 µM
GI50 [19]: 13.1 µM
TGI [19]: 38.4 µM
GI50 [20]: 10.7 µM
TGI [20]: 40.1 µM
GI50 [21]: 2.02 µM
TGI [21]: 18.7 µM
GI50 [22]: 0.275 µM
TGI [22]: > 100 µM
GI50 [23]: 3.46 µM
TGI [23]: 66.4 µM
GI50 [24]: 0.0199 µM
TGI [24]: 86.5 µM
GI50 [25]: 5.34 µM
TGI [25]: > 100 µM
GI50 [26]: 4.1 µM
TGI [26]: 77.2 µM
GI50 [27]: 3.53 µM
TGI [27]: 86.5 µM
GI50 [28]: 4.15 µM
TGI [28]: > 100 µM
GI50 [29]: 3.05 µM
TGI [29]: 81.1 µM
GI50 [30]: 2.43 µM
TGI [30]: 16.5 µM
GI50 [31]: 2.9 µM
TGI [31]: 62.2 µM
GI50 [32]: 3.07 µM
TGI [32]: 80.3 µM
GI50 [33]: 14.8 µM
TGI [33]: 34.2 µM
GI50 [34]: 2.1 µM
TGI [34]: 36.7 µM
GI50 [35]: 3.66 µM
TGI [35]: 43.6 µM
GI50 [36]: 0.293 µM
TGI [36]: 63.9 µM
GI50 [37]: 1.4 µM
TGI [37]: 11.4 µM
GI50 [38]: 11.8 µM
TGI [38]: 40.1 µM
GI50 [39]: 0.0887 µM
TGI [39]: 1.9 µM
GI50 [40]: 3.3 µM
TGI [40]: 72.8 µM
GI50 [41]: 4.45 µM
TGI [41]: 44.5 µM
GI50 [42]: 12.8 µM
TGI [42]: 46.5 µM
GI50 [43]: 4.09 µM
TGI [43]: 17.1 µM
GI50 [44]: 19.1 µM
TGI [44]: > 100 µM
GI50 [45]: 4.82 µM
TGI [45]: > 100 µM
GI50 [46]: 4.9 µM
TGI [46]: > 100 µM
GI50 [47]: 7.75 µM
TGI [47]: 45.9 µM
GI50 [48]: 16.4 µM
TGI [48]: 35.4 µM
GI50 [49]: 2.42 µM
TGI [49]: 10.9 µM
GI50 [50]: 0.596 µM
TGI [50]: 12.7 µM
GI50 [51]: 15.5 µM
TGI [51]: 72.6 µM
GI50 [52]: 4.1 µM
TGI [52]: 28.9 µM
GI50 [53]: 14.6 µM
TGI [53]: > 100 µM
GI50 [54]: 8.18 µM
TGI [54]: > 100 µM
GI50 [55]: 14.6 µM
TGI [55]: 62.8 µM

Source: PubChem BioAssay (NCI)
